In patent US11548884B2, “Cyclic amidine compounds for the treatment of autoimmune disease” (Hoffmann-La Roche Inc., priority 2018, dated 2023) one finds IC50 data, which are given here for 9 compounds.

This assay deals with T1, human TLR9 (Homo sapiens, UniProt Q9NR96).
T1 sequence (Q9NR96 26-1032): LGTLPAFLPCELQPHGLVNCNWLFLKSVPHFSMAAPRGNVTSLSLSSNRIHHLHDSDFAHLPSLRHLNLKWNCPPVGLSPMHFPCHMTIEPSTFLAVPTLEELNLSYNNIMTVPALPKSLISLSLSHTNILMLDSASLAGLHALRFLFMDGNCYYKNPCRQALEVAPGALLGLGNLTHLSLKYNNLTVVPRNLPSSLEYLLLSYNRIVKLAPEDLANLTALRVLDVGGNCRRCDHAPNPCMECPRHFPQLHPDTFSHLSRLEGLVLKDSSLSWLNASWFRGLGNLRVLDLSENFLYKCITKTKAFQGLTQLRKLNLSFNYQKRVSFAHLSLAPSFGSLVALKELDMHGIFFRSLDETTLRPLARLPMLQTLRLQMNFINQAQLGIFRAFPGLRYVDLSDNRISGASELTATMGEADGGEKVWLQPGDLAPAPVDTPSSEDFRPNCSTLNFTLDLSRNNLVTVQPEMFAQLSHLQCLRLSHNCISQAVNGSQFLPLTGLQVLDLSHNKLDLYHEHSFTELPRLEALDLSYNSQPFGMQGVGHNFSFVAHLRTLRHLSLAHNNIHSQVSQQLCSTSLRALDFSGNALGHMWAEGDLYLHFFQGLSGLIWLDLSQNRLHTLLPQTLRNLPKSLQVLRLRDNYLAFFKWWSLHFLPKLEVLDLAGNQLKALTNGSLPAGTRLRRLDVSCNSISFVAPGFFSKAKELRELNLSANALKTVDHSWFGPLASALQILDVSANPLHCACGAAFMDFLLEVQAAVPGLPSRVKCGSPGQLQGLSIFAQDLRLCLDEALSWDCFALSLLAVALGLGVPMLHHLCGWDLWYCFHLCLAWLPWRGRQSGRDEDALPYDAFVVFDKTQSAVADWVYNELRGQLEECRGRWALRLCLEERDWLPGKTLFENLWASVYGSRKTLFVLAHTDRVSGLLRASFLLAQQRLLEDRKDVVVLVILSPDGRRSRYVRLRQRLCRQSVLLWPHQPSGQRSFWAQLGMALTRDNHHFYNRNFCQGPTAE
In words: HEK293-Blue-hTLR-9 cells assay (SEAP reporter, ODN2006 stimulation). The assay is classed as cell-based. Particulars: HEK293-Blue-hTLR9 cells, ODN2006 ligand, 20 h incubation. The procedure:
The following tests were carried out in order to determine the activity of the compounds of formula (I) in HEK293-Blue-hTLR-7/8/9 cells assay.
HEK293-Blue-hTLR-9 Cells Assay:
A stable HEK293-Blue-hTLR-9 cell line was purchased from InvivoGen (Cat. #: hkb-htlr9, San Diego, Calif., USA). These cells were originally designed for studying the stimulation of human TLR9 by monitoring the activation of NF-κB. A SEAP (secreted embryonic alkaline phosphatase) reporter gene was placed under the control of the IFN-β minimal promoter fused to five NF-κB and AP-1-binding sites. The SEAP was induced by activating NF-κB and AP-1 via stimulating HEK-Blue hTLR9 cells with TLR9 ligands. Therefore the reporter expression was declined by TLR9 antagonist under the stimulation of a ligand, such as ODN2006 (Cat. #: tlrl-2006-1, Invivogen, San Diego, Calif., USA), for incubation of 20 h. The cell culture supernatant SEAP reporter activity was determined using QUANTI-Blue™ kit (Cat. #: rep-qb1, Invivogen, San Diego, Calif., USA) at a wavelength of 640 nm, a detection medium that turns purple or blue in the presence of alkaline phosphatase.
HEK293-Blue-hTLR9 cells were incubated at a density of 250,000˜450,000 cells/mL in a volume of 170 μL in a 96-well plate in Dulbecco's Modified Eagle's medium (DMEM) containing 4.5 g/L glucose, 50 U/mL penicillin, […], 2 mM L-glutamine, 10% (v/v) heat-inactivated fetal bovine serum with addition of 20 μL test compound in a serial dilution in the presence of final DMSO at 1% and 10 μL of 20 uM ODN2006 in above DMEM, perform incubation under 37° C. in a CO2 incubator for 20 h. Then 20 μL of the supernatant from each well was incubated with 180 μL Quanti-blue substrate solution at 37° C. for 2 h and the absorbance was read at 620˜655 nm using a spectrophotometer. The signalling pathway that TLR9 activation leads to downstream NF-κB activation has been widely accepted, and therefore similar reporter assay was modified for evaluating TLR9 antagonist.
With `C[C@@H]1CN(c2ccc(C#N)c3ncccc23)C[C@H](C2=Nc3cccc(N4CCNCC4)c3CN2)O1` [Example 6, 5-[(2R,6R)-2-methyl-6-(5-piperazin-1-yl-3,4-dihydroquinazolin-2-yl)morpholin-4-yl]quinoline-8-carbonitrile], the concentration for half-maximal inhibition (IC50) came to 50 nM. The result for `C[C@@H]1CN(c2ccc(C#N)c3ncccc23)C[C@H](C2=Nc3cccc(N4CCN(C)CC4)c3CN2)O1` [Example 12, 5-[(2R,6R)-2-methyl-6-[5-(4-methylpiperazin-1-yl)-3,4-dihydroquinazolin-2-yl]morpholin-4-yl]quinoline-8-carbonitrile] reads 42 nM; that for `C[C@@H]1CN(c2ccc(C#N)c3ncccc23)C[C@H](C2=Nc3cc(N4CCNCC4)ccc3CN2)O1` [Example 8, 5-[(2R,6R)-2-methyl-6-(7-piperazin-1-yl-3,4-dihydroquinazolin-2-yl)morpholin-4-yl]quinoline-8-carbonitrile], 65 nM; that for `C[C@@H]1CN(c2ccc(C#N)c3ncccc23)C[C@H](C2=Nc3cccc(N4CCC5(CCNC5)C4)c3CN2)O1` (stereo partly drawn) [Example 13, 5-[(2R,6R)-2-[5-(2,7-diazaspiro[4.4]nonan-2-yl)-3,4-dihydroquinazolin-2-yl]-6-methyl-morpholin-4-yl]quinoline-8-carbonitrile], 313 nM. Then `C[C@@H]1CN(c2ccc(C#N)c3ncccc23)C[C@H](C2=Nc3ccc(N4CCNCC4)cc3CCN2)O1` [Example 17, 5-[(2R,6R)-2-methyl-6-(7-piperazin-1-yl-4,5-dihydro-3H-1,3-benzodiazepin-2-yl)morpholin-4-yl]quinoline-8-carbonitrile], with 49 nM; and `C[C@@H]1CN(c2ccc(C#N)c3ncccc23)C[C@H](C2=Nc3ccc(N4CCNCC4)cc3CN2)O1` [Example 7, 5-[(2R,6R)-2-methyl-6-(6-piperazin-1-yl-3,4-dihydroquinazolin-2-yl)morpholin-4-yl]quinoline-8-carbonitrile], with 102 nM.

On to `C[C@@H]1CN(c2ccc(C#N)c3ncccc23)C[C@H](C2=Nc3cccc(C4=CCNCC4)c3CCN2)O1` [Example 16, 5-[(2R,6R)-2-methyl-6-[6-(1,2,3,6-tetrahydropyridin-4-yl)-4,5-dihydro-3H-1,3-benzodiazepin-2-yl]morpholin-4-yl]quinoline-8-carbonitrile], for which the IC50 was found to be 64 nM. `C[C@@H]1CN(c2ccc(C#N)c3ncccc23)C[C@H](C2=Nc3cccc(C4CCNCC4)c3CN2)O1` [Example 18, 5-[(2R,6R)-2-methyl-6-[5-(4-piperidyl)-3,4-dihydroquinazolin-2-yl]morpholin-4-yl]quinoline-8-carbonitrile] had an IC50 of 90 nM. Then `C[C@@H]1CN(c2ccc(C#N)c3ncccc23)C[C@H](C2=Nc3c(cccc3N3CCNCC3)CN2)O1` [Example 9, 5-[(2R,6R)-2-methyl-6-(8-piperazin-1-yl-3,4-dihydroquinazolin-2-yl)morpholin-4-yl]quinoline-8-carbonitrile], with 97 nM.
